From patent US8540983B2, “Debriding composition from bromelain and methods of production thereof” (MediWound Ltd., priority 2004, dated 2013)

System: Debrase esterolytic activity
Assay: Esterolytic activity of Debrase (CLN substrate) and its inhibition by bromelain HPLC fractions
Format: biochemical, Ananas comosus
Settings: Debrase + 1 mM Iodoacetamide, pH 4.6
Procedure: Bromelain powder (2.5 g) was suspended in 10 ml of 0.1M potassium phosphate buffer pH 6.1 saturated with phenyl mercury acetate for 10 min. After centrifugation for 10 min (3500 rpm), one ml of the supernatant was applied to gel filtration chromatography on a HiLoad 16/60 Superdex 75 HPLC preparation grade column, equilibrated and eluted with the same buffer. Fractions of 5 ml were collected 30 minutes after sample application. For each of the eluted fractions, three parameters were measured: (i) absorbance at 280 nm (A280); (ii) esterolytic activity; and (iii) inhibition of Debrase esterolytic activity.
The esterolytic activity of the bromelain fractions was assayed spectrophotometrically at pH 4.6 using the chromogenic substrate p-nitrophenyl Na-benzyloxycarbonyl-L-lysinate (CLN) as follows:
One milliliter of sodium acetated buffer (10 mM) containing 0.1 M KCl and 1 mM L-cysteine, pH 4.6 was placed in a plastic cuvette at 25° C. One hundred μl of the eluted fraction (at a concentration of 2.5 mg/ml) were added. The solution was incubated for 2 min and then 50 μl of CLN solution (2.5 mM in acetonitrile 10% water) were added. The cuvette was mixed and the increase in absorbance at 317 nm was monitored for 5 minutes. The spontaneous hydrolysis of the substrate was monitored in the presence of buffer only instead of the eluted fractions.

Structure (SMILES): NC(=O)CI [Iodoacetamide]
- % Inhibition: 37.0%
- Proteolytic activity (esterolytic activity of Debrase): 593
